This note sets out measurements from patent US7655395B2, “Isolation and use of ryanodine receptors” (E.I. du Pont de Nemours and Company, priority 2002, dated 2010).

What is called IC50 is the midpoint of a concentration-inhibition curve.

The target in assay [1] is native cockroach ryanodine receptors (roach femoral muscle membranes) (Periplaneta americana, UniProt A0ABQ8T696). The assay can be described thus: Radioligand displacement ([3H]-GN analog Cpd 1) on roach femoral muscle membranes. The following applies: for IC50: displacement of [3H]-Cpd 1, roach muscle membranes, 60 min at 32° C., read-out: Displacement IC50 (nM) P. americana; for Radioligand Displacement (P. americana): Table 6, result in words. The assay is classed as binding. As for the experimental part: Binding to Roach Femoral Muscle Membranes:
Assays were carried out in triplicate.
(In general: In a radioligand displacement assay an active substance lowers the binding of a labelled ligand.)

Assay [2] has as its system native cockroach ryanodine receptors (in embryonic neuronal cells). Kind of assay: Calcium release assay, calcium imaging of embryonic cockroach neuronal cells (Fluo-4). The assay is classed as cell-based, Periplaneta americana. Particulars: for Calcium Release (P. americana): Table 6, result in words. From the text:
Embryonic neuronal cultures of the American cockroach Periplaneta americana were established, with minor modifications, following the method of Beadle and Lees (1988) (in Cell Culture Approaches to Invertebrate Neuroscience, Academic Press, New York, pp 123-127). Briefly, 26-27-day old oothecae were collected, surface-sterilized and cut open along a line one-third of the distance below the dorsal midline. The heads were removed and placed in Schneider's Drosophila medium (Invitrogen Life Technologies™, Carlsbad, Calif.). Using fine forceps 40 brains were individually removed and placed in a small glass vial containing 700 μl of ‘5+4’ medium (‘5+4’ medium contained 5 parts Schneider's Drosophila medium plus 4 parts roach Basal Medium Eagle, with Earle's salts (BME, Sigma™, St. Louis, Mo.). Roach BME (with Earle's salts) contained 5 parts Hepes (1 M), 1 part penicillin/streptomycin and 44 parts BME (with Earle's salts). ‘5+4’ medium was made fresh and sterile filtered (0.2 μm filter) just prior to use). The brains were dissociated by sequential trituration as follows: 1) brains were passed through a standard Pasteur pipette 10 times; 2) the resulting tissue suspension was passed an additional 5 times through a Pasteur pipet with tip flamed to about half of its original diameter; 3) a final 5 passes were performed using a Pasteur pipet with tip flamed to slightly less than half of its original diameter. A repeat pipettor was used to dispense a 5 μl volume of the resulting suspension into the center of each well of a 96-well, glass-bottom plate previously coated with poly-L-lysine (0.2 mg/ml solution). Cells attached to the bottom of the wells during a 50 min incubation at 27-29° C. 150 ul of a 1:1 mixture of Leibovitz's L-15 medium and Yunker's modified Grace's medium was added, and plates were maintained in a humid incubator at 27-29° C. until use. After cells were allowed to attach wells were filled with a 1:1 mixture of Leibovitz's L-15 medium and Yunker's modified Grace's medium (Leibovitz's L-15 and Grace's medium were obtained from Invitrogen Life Technologies™, Carlsbad, Calif. and Yunker's modified Grace's medium was made with Grace's medium modified by addition of 5 mg L-methionine, 10 mg L-alanine, 182 mg MgCl2.6H20, 1 g Albumin Fraction V, 7 ml Fetal bovine serum, 10 ml Chick embryo extract, 2 ml Penicillin/Streptomycin, and 2 mg 20-hydroxyecdysone (prepared in ethanol prior to addition) to a final volume of 100 ml and sterile filtered (0.2 μm filter)). Cells were maintained in a high humidity incubator at 29° C. until testing.
The calcium imaging and acquisition protocols using roach neuronal cells is as follows:
Cells were rinsed in standard physiological saline having the following composition (mM): NaCl 190; CaCl2 9; KCl 3.1; probenicid 1; Tris buffer 10; pH 7.2. Cells were then bathed in standard physiological saline containing the calcium sensitive fluoroprobe Fluo-4 AM (2 μM) and Pluronic F127 (0.002%) for 45 min. Cells were then rinsed in standard physiological saline for at least 15 min prior to testing. Within the hour prior to testing, standard physiological saline was replaced with standard physiological saline containing the organic cation channel blocker pimozide (10 μM), to inhibit influx of external calcium through voltage-gated calcium channels. The 96-well plate was placed on a Prior™ motorized stage mounted onto a Nikon Diaphot microscope and imaged using a 20× Fluor objective (NA 0.75). Individual wells from the 96-well plate were sequentially excited with light at 495 nm, and the emitted fluorescence at 530 nm was detected using a Hamamatsu ORCA ER digital camera with 2 pixel binning (image size 672×512 pixels).
Acquisition control, image processing and image analysis were conducted using Universal Imaging Corporation's MetaMorph™ imaging software (Universal Imaging, West Chester, Pa.). A series of 3 “control” images were acquired for each well. […]

The target of assay [3] is T1, recombinant Drosophila melanogaster ryanodine receptors (expressed in Sf9 cells) (Drosophila melanogaster, UniProt Q24498).
T1 construct: expressed in transfected cells
The assay is classed as cell-based. The following applies: for Calcium Release Threshold (nM) D. melanogaster: receptor expressed in Sf9 cells; for Calcium Release (D. melanogaster): Table 6, result in words, receptor transiently or stably expressed in Sf9 cells. As for the experimental part:
The Spodoptera frugiperda cell line Sf9 used for transfection studies, was maintained in Sf-900 II SFM medium (Invitrogen Life Technologies™, Carlsbad, Calif.) in T-75 flasks incubated at 27° C. It is understood that those skilled in the art might choose alternative cell types such as the Spodoptera frugiperda cell line Sf21 or the Drosophila cell line S2. For the purpose of general handling and propagation, cells were suspended through scraping or agitation and a volume of cell suspension was added to each well of a poly-L-lysine coated 96-well, glass-bottom plate so as to provide 70-80% confluence. Cells were maintained in an incubator at 27° C. until testing.
SF900-II media was used to bring the final volume in the dish to 2 ml and the cells were incubated at 27 degrees C. for 21 h. Following the incubation the media was aspirated from the dish and replaced with 1 ml of SF900-II media pre-warmed to 27 degrees C.
The transient transfection was carried out following an InsectSelect BSD System manual (Invitrogen Life Technologies™, Carlsbad, Calif.). […] The transfection was accomplished by adding the transfection solution drop-wise to the dish and incubating 4 h at room temperature with gentle rocking. […]
(§1) Several drops of a suspension of recombinant Spodoptera frugiperda cell line, Sf9, transiently expressing insect ryanodine receptors were placed on a poly-L-lysine-coated coverslip and allowed to attach. Cells were then rinsed in physiological saline having the following composition (mM): NaCl 130; KCl 5.4; MgCl2 1.2; CaCl2 1.0; NaHCO3 4.2; NaH2P04 7.3; Glucose 10; Sucrose 63; MES 20; pH 6.3. Cells were then bathed in physiological saline containing the calcium sensitive fluoroprobe, Fura-2 AM (2 μM), and Pluronic F127 (0.002%) for 30 min. Cells were rinsed in standard physiological saline for at least 15 min prior to testing. Testing was conducted in standard physiological saline, as the cell lines are devoid of functional voltage-gated calcium channels.
Cell-attached coverslips were placed in a sealed chamber with physiological saline continuously perfused across the cells using a peristaltic pump. Test compounds solubilized in physiological saline were applied by switching the perfusate source.
(§2) For studies involving the stable recombinant Spodoptera frugiperda cell line, Sf9, (other cell lines could also be used such as Sf21, S2, etc) expressing an insect ryanodine receptor from Drosophila melanogaster, or Heliothis virescens (alternatively receptors from other species such as Myzus persicae, Peregrinus maidis, Aphis gossypii, etc) were grown in T75 (or other appropriate sized) flasks in supplemented Grace's insect medium. Cells were maintained in an incubator at 22° C. until testing. Cells were suspension-loaded with the calcium sensitive fluoroprobe, Fura-2 AM (1-2 μM) and Pluronic F127 (0.002%) in culture medium for 30 minutes under agitation. Cells were then centrifuged and the pellet resuspended in physiological saline having the following composition (mM): NaCl 130; KCl 5.4; MgCl2 1.2; CaCl2 1.0; NaHCO3 4.2; NaH2P04 7.3; Glucose 10; Sucrose 63; MES 20; pH 6.3 at approximately 150,000-200,000 cells per well (96-well plate). After a 30 minute equilibration period the cell plate was tested using a Molecular Devices' FlexStation™ system with dual wavelength excitation (340 and 380 nm) and fluorescence emission measured at 510 nm. Test and control samples were added using integrated fluidics and the intracellular calcium monitored over a 2 minute period.

Assay [4] deals with control cells without DNA / wild-type Sf9 cells. The assay can be described thus: Calcium response in control Sf9 cells (without DNA, lipid only, non-transfected, wild type). It is filed as cell-based, Spodoptera frugiperda. Particulars: Compound 16 10 and 100 nM.
From the text: as §1
Imaging studies were conducted using a Nikon Diaphot microscope with a 40× oil immersion objective (NA 1.3) Image acquisition and processing was performed using the MetaFluor™ imaging system from Universal Imaging Corporation (West Chester, Pa.) Calcium calibration was carried out using the Grynkiewicz equation with a dissociation constant (Kd) of 145 nM for Fura-2 (Grynkiewicz et al., 1985). Cell-attached coverslips were placed in a sealed chamber with physiological saline continuously perfused across the cells using a peristaltic pump. Test compounds solubilized in physiological saline were applied by switching the perfusate source.
as §2

Sequence of native cockroach ryanodine receptors (roach femoral muscle membranes) (A0ABQ8T696 entry or part of it): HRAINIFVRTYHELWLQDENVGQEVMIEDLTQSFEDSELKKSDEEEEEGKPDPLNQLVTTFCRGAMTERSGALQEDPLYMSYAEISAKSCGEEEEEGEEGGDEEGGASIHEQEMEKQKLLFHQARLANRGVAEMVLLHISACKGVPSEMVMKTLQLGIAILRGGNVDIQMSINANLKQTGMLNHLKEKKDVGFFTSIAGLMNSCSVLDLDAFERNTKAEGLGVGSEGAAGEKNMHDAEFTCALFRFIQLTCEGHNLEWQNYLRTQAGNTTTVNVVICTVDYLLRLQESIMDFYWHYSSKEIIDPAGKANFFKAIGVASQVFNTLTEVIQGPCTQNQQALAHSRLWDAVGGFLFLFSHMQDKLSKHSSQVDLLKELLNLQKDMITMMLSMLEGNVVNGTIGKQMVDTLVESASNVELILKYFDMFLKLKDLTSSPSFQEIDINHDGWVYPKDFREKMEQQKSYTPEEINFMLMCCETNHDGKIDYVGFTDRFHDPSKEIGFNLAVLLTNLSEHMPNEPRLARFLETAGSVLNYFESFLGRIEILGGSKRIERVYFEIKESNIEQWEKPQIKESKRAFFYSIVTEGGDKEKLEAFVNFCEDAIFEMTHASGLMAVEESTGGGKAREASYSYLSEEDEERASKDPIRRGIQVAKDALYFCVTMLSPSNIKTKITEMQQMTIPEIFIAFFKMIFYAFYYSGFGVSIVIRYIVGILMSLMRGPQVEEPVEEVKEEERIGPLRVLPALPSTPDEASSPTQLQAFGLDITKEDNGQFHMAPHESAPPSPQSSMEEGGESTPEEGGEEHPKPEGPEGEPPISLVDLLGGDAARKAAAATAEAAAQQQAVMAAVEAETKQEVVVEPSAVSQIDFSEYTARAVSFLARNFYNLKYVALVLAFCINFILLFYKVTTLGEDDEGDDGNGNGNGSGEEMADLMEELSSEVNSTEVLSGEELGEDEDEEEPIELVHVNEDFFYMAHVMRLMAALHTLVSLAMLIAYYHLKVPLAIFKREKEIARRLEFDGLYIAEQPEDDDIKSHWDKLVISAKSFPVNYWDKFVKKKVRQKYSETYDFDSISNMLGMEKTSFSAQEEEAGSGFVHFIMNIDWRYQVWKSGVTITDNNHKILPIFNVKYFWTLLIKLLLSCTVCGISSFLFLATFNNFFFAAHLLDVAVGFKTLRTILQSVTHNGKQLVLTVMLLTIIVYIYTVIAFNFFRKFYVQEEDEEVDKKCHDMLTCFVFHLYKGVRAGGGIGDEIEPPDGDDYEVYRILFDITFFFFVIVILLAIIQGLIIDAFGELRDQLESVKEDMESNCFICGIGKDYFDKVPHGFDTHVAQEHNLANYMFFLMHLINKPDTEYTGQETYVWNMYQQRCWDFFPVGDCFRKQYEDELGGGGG

As to `Cc1cc(Cl)cc(C(=O)NC(C)C)c1NC(=O)c1cc(Cl)nn1-c1ncccc1Cl` [Cpd 16], the IC50 in assay [1] was less than 300 nM. For the same compound, the “Calcium Release Threshold (nM) P. americana” value in assay [2] is less than 300 nM. In assay [3] (Compound 16 10 and 100 nM, Sf9 transiently expressing D. melanogaster ryanodine receptor, 96 hr post-transfection, FIG. 3), the calcium response entry was “calcium responses elicited”. Also, the “Calcium Release Threshold (nM) D. melanogaster” value in assay [3] is reported as less than 300 nM. Also, in assay [4], the “calcium response in control cells without DNA” value was “No significant calcium responses”.
Take `Cc1cc(Br)cc(C(=O)NC(C)C)c1NC(=O)c1cc(C(F)(F)F)nn1-c1ncccc1Cl` [Cpd 9]: the IC50 in assay [1] was less than 300 nM. Further, the “Calcium Release Threshold (nM) P. americana” value in assay [2] is listed as less than 300 nM.
Regarding `CNC(=O)c1cc(Cl)cc(C)c1NC(=O)c1cc(Cl)nn1-c1ncccc1Cl` [Cpd 17], the IC50 in assay [1] was less than 300 nM. The “Calcium Release Threshold (nM) P. americana” value in assay [2] is less than 300 nM.
As to `Oc1c(Br)cc2[nH]c3cnccc3c2c1Br` [Bromoeudistomin D, reference compound], the “Calcium Release (P. americana)” value in assay [2] is “Agonist”.
For `CNC(=O)c1cc(Cl)cc(C)c1NC(=O)c1cc(C(F)(F)F)nn1-c1ncccc1Cl` [Cpd 11], the IC50 in assay [1] was less than 300 nM. Besides, the “Calcium Release Threshold (nM) P. americana” value in assay [2] was less than 300 nM. Further, the “Calcium Release Threshold (nM) D. melanogaster” value in assay [3] is given as less than 300 nM.
In the case of `CNC(=O)c1cc(Br)cc(C)c1NC(=O)c1cc(C(F)(F)F)nn1-c1ncccc1Cl` [Cpd 15], the 50% inhibitory concentration (IC50) in assay [1] is less than 300 nM. Further, the “Calcium Release Threshold (nM) P. americana” value in assay [2] is given as less than 300 nM.
For the compound `Cc1cc(Br)cc(C(=O)NCC(C)C)c1NC(=O)c1cc(C(F)(F)F)nn1-c1ccccc1Cl` [Cpd 3], the IC50 in assay [1] was less than 300 nM.
Take `CCNC(=O)c1cc(Br)cc(Br)c1NC(=O)c1cc(C(F)(F)F)nn1-c1ncccc1Cl` [Cpd 18]: the IC50 in assay [1] was less than 300 nM.
Consider `Cc1cccc(C(=O)NC(C)C)c1NC(=O)c1cc(Br)nn1-c1ncccc1Cl` [Cpd 7], for which the IC50 in assay [1] is less than 300 nM. In assay [2], the “Calcium Release Threshold (nM) P. americana” value was less than 300 nM.
Take `Cc1cccc(C(=O)NC(C)C)c1NC(=O)c1cc(Cl)nn1-c1ncccc1Cl` [Cpd 8]: the IC50 in assay [1] was less than 300 nM. Besides, the “Calcium Release Threshold (nM) P. americana” value in assay [2] is less than 300 nM.
On the same counts, the results for `Cc1cc(Cl)cc(C(=O)NC(C)C)c1NC(=O)c1cc(C(F)(F)F)nn1-c1ncccc1Cl` [Cpd 10] are less than 300 nM and less than 300 nM.
Consider `Cc1cccc(C(=O)NC(C)C)c1NC(=O)c1cc(C(F)(F)F)nn1-c1ccccc1Cl` [Cpd 2], for which the IC50 in assay [1] was less than 300 nM. Moreover, the “Calcium Release Threshold (nM) P. americana” value in assay [2] is reported as less than 300 nM. Besides, the “Calcium Release Threshold (nM) D. melanogaster” value in assay [3] is given as less than 300 nM.
With `[3H]c1cc(C)c(NC(=O)c2cc(C(F)(F)F)nn2-c2ccccc2F)c(C(=O)NC(C)C)c1` [Cpd 1, 1-(2-Fluorophenyl)-N-[2-methyl-4-tritio-6-[[(1-methylethyl)amino]carbonyl]phenyl]-3-(trifluoromethyl)-1H-pyrazole-5-carboxamide], in assay [1], the IC50 is less than 300 nM. The “Calcium Release Threshold (nM) D. melanogaster” value in assay [3] is listed as less than 300 nM.
In the case of `COc1cccc2c1C(=O)c1c(O)c3c(c(O)c1C2=O)C[C@@](O)(C(=O)CO)C[C@@H]3O[C@H]1C[C@H](N)[C@H](O)[C@H](C)O1.Cl` [Doxorubicin, reference compound], in assay [2], the “Calcium Release (P. americana)” value is “Inactive”.
Turning to `Cc1cc(Br)cc(C(=O)NC(C)C)c1NC(=O)c1cc(Br)nn1-c1ncccc1Cl` [Cpd 12], the IC50 in assay [1] is less than 300 nM. Further, the “Calcium Release Threshold (nM) P. americana” value in assay [2] is listed as less than 300 nM.
With `CNC(=O)c1cccc(C)c1NC(=O)c1cc(C(F)(F)F)nn1-c1ncccc1Cl` [Cpd 6], the IC50 in assay [1] was less than 300 nM. For the same compound, the “Calcium Release Threshold (nM) P. americana” value in assay [2] was less than 300 nM.
In the case of `Cc1cc(Cl)cc(C(=O)NC(C)C)c1NC(=O)c1cc(Br)nn1-c1ncccc1Cl` [Cpd 13], the half-inhibitory concentration (IC50) in assay [1] is less than 300 nM.
With Ryanodine [reference compound], the “Radioligand Displacement (P. americana)” value in assay [1] is reported as “Inactive”. In assay [2], the “Calcium Release (P. americana)” value is “Antagonist”. In addition, in assay [3], the “Calcium Release (D. melanogaster)” value is recorded as “Antagonist”.
For `N.N.N.N.N.N.N.N.N.N.N.N.N.N.[Cl-].[Cl-].[Cl-].[Cl-].[Cl-].[Cl-].[O-2].[O-2].[Ru+3].[Ru+3].[Ru+4]` [Ruthenium Red, reference compound], in assay [1], the “Radioligand Displacement (P. americana)” value is “Displacer”. Moreover, the “Calcium Release (P. americana)” value in assay [2] was “Inactive”. Moreover, in assay [3], the “Calcium Release (D. melanogaster)” value is reported as “Antagonist”.
